Test results taken from ChEMBL document CHEMBL2407022, “Advancement of Imidazo[1,2-a]pyridines with Improved Pharmacokinetics and Nanomolar Activity Against Mycobacterium tuberculosis” (ACS Med Chem Lett, 2013).
≈ marks a conversion by molar mass, not a printed value. Calls of active or inactive are those of the source. The calls are words filed in the database; no cut-off is given here.

How the values were obtained:
[1] = system: Mycobacterium tuberculosis; assay: Antimycobacterial activity against Mycobacterium tuberculosis H37Rv expressing pCHERRY3 after 4 days by plate format assay; type: functional; conditions: 96 h
[2] = Drug metabolism in human liver microsomes assessed as monohydroxylations on imidazopyridine at 2 uM after 30 mins by LC/MS/MS analysis; type: ADME, Microsome; conditions: 0.5 h
[3] = Drug metabolism in mouse liver microsomes assessed as monohydroxylations on imidazopyridine at 2 uM after 30 mins by LC/MS/MS analysis; type: ADME, Microsome; conditions: 0.5 h
[4] = Drug metabolism in rat liver microsomes assessed as monohydroxylations on imidazopyridine at 2 uM after 30 mins by LC/MS/MS analysis; type: ADME, Microsome; conditions: 0.5 h
Cytochrome P450 2C9 = Cytochrome P450 2C9 (Homo sapiens, UniProt P11712); assay: Time dependent inhibition of CYP3A4 in human liver microsomes using midazolam as substrate at 10 uM after 10 mins; type: ADME, Microsome
CYP3A4 = CYP3A4 (Homo sapiens, UniProt P11712); assay: Inhibition of CYP3A4 in human liver microsomes using midazolam as substrate at 10 uM after 10 mins; type: ADME, Microsome; conditions: probe midazolam
CYP2C9 = CYP2C9 (Homo sapiens, UniProt P11712); assay: Inhibition of CYP2C9 in human liver microsomes using diclofenac as substrate at 10 uM after 10 mins; type: ADME, Microsome; conditions: probe diclofenac
CYP2D6 = CYP2D6 (Homo sapiens, UniProt P10635); assay: Inhibition of CYP2D6 in human liver microsomes using bufuralol as substrate at 10 uM after 10 mins; type: ADME, Microsome; conditions: probe bufuralol
[5] = Drug metabolism in human liver microsomes at 2 uM after 30 mins by LC-MS analysis; type: ADME, Microsome; conditions: read-out: Drug metabolism
[6] = Drug metabolism in dog liver microsomes at 2 uM after 30 mins by LC-MS analysis; type: ADME, Canis lupus familiaris, Microsome; conditions: read-out: Drug metabolism
[7] = Drug metabolism in rat liver microsomes at 2 uM after 30 mins by LC-MS analysis; type: ADME, Microsome; conditions: read-out: Drug metabolism
[8] = Drug metabolism in mouse liver microsomes at 2 uM after 30 mins by LC-MS analysis; type: ADME, Microsome; conditions: read-out: Drug metabolism
[9] = Clearance in Balb/c mouse at 1 mg/kg, iv; type: ADME, organism-based; design: dose 1 mg/kg, route intravenous; conditions: in vivo
[10] = Half life in Balb/c mouse at 100 mg/kg, po; type: ADME, organism-based; design: dose 100 mg/kg, route oral; conditions: in vivo
[11] = Half life in Balb/c mouse at 3 mg/kg, po; type: ADME, organism-based; design: dose 3 mg/kg, route oral; conditions: in vivo
[12] = Tmax in Balb/c mouse at 3 mg/kg, po; type: ADME, organism-based; design: dose 3 mg/kg, route oral; conditions: in vivo
[13] = Tmax in Balb/c mouse at 100 mg/kg, po; type: ADME, organism-based; design: dose 100 mg/kg, route oral; conditions: in vivo
[14] = system: Mycobacterium tuberculosis; assay: Antimycobacterial activity against isoniazid, rifampin, ethambutol, kanamycin and p-aminosalicylic acid-resistant Mycobacterium tuberculosis after 14 days; type: functional; conditions: 336 h
[15] = system: Mycobacterium tuberculosis; assay: Antimycobacterial activity against isoniazid, rifampin, ethambutol, pyrazinamide, streptomycin, kanamycin and p-aminosalicylic acid-resistant Mycobacterium tuberculosis after 14 days; type: functional; conditions: 336 h
[16] = system: Mycobacterium tuberculosis; assay: Antimycobacterial activity against Mycobacterium tuberculosis H37Rv expressing pCHERRY3 after 4 days by plate format assay in presence of bovine serum albumin; type: functional, organism-based
[17] = system: Mycobacterium tuberculosis; assay: Antimycobacterial activity against drug-sensitive Mycobacterium tuberculosis clinical isolate 2 after 14 days; type: functional; conditions: clinical isolate 2, 336 h
[18] = system: Mycobacterium tuberculosis; assay: Antimycobacterial activity against drug-sensitive Mycobacterium tuberculosis clinical isolate 1 after 14 days; type: functional; conditions: clinical isolate 1, 336 h
[19] = Half life in Balb/c mouse at 10 mg/kg, po; type: ADME, organism-based; design: dose 10 mg/kg, route oral; conditions: in vivo
[20] = Tmax in Balb/c mouse at 10 mg/kg, po; type: ADME, organism-based; design: dose 10 mg/kg, route oral; conditions: in vivo

Cytochrome P450 2C9, sequence (P11712 whole entry): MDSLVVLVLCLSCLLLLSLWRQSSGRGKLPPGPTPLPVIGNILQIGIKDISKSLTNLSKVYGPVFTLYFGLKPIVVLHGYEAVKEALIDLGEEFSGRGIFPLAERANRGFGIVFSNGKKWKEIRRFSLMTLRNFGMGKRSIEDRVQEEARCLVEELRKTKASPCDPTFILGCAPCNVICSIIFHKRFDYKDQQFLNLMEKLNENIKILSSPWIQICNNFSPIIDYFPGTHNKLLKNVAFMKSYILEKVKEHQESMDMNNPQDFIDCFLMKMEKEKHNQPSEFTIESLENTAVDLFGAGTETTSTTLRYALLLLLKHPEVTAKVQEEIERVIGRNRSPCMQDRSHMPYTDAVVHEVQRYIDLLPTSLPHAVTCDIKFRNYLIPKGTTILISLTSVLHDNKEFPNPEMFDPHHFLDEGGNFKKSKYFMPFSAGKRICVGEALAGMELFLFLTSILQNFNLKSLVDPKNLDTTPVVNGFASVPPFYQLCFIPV
CYP2D6, sequence (P10635 whole entry): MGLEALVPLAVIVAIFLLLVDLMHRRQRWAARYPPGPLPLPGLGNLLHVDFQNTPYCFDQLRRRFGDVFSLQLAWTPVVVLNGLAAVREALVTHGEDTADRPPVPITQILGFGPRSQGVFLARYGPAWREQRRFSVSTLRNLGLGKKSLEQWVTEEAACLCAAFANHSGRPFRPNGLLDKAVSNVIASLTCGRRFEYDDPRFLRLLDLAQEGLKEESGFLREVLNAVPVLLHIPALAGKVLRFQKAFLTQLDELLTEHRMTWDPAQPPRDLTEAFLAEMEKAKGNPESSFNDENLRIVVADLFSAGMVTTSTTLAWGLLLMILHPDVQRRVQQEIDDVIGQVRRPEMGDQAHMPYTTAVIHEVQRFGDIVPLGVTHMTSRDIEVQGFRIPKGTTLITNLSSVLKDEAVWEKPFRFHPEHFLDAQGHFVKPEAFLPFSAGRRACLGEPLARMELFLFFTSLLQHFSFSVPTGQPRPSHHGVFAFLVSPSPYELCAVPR
CYP2C9, sequence (P11712 whole entry): as the sequence (P11712 whole entry) above
CYP3A4, sequence (P11712 whole entry): as above

COc1cccc(NC(=O)c2c(C)nc3cc(C)ccn23)c1
MIC99 [1]: > 20 µM

Cc1ccn2c(C(=O)NCc3ncc(C(F)(F)F)cc3Cl)c(C)nc2c1
Drug metabolism [2]: Active
Drug metabolism [3]: Active
Drug metabolism [4]: Active
inhibition (INH) (Cytochrome P450 2C9): Active
inhibition at 10 min, 10 µM (CYP3A4): 0%
inhibition at 10 min, 10 µM (CYP2C9): 11.5%
inhibition at 10 min, 10 µM (CYP2D6): 2.8%
metabolised at 0.5 h, 2 µM [5]: 0%
metabolised at 0.5 h, 2 µM [6]: 41.2%
metabolised at 0.5 h, 2 µM [7]: 19.3%
metabolised at 0.5 h, 2 µM [8]: 79.9%
clearance [9]: 43.1 mL/min/kg
half-life [10]: 1.93 h
half-life [11]: 5 h
Tmax [12]: 0.25 h
Tmax [13]: 2 h
MIC99 [14]: 0.4 µM (≈ 0.153 µg/mL)
MIC99 [15]: 6.5 µM (≈ 2.49 µg/mL)
Activity [16]: Active
MIC99 [1]: 0.7 µM (≈ 0.268 µg/mL)

Cc1ccc2nc(C)c(C(=O)NCc3ccc(S(C)(=O)=O)cc3)n2c1
MIC99 [1]: 0.4 µM (≈ 0.143 µg/mL)

Cc1ccc2nc(C)c(C(=O)NCc3ccc(Oc4ccc(F)cc4)cc3)n2c1
MIC99 [1]: 0.005 µM (≈ 0.00195 µg/mL)

Cc1nc2c(C)cccn2c1C(=O)NCc1ccc(Oc2ccc(F)cc2)cc1
MIC99 [1]: 0.1 µM (≈ 0.0389 µg/mL)

O=[N+]([O-])c1cn2c(n1)OC[C@@H](OCc1ccc(OC(F)(F)F)cc1)C2 [PRETOMANID]
MIC99 [14]: 0.5 µM (≈ 0.18 µg/mL)
MIC99 [17]: > 13.9 µM
MIC99 [15]: 0.5 µM (≈ 0.18 µg/mL)
MIC99 [18]: 0.5 µM (≈ 0.18 µg/mL)
MIC99 [1]: 0.6 µM (≈ 0.216 µg/mL)

Cc1ccn2c(C(=O)NCc3ccccc3)c(C)nc2c1
metabolised at 0.5 h, 2 µM [7]: 71%
Activity [16]: Active
MIC99 [1]: 0.2 µM (≈ 0.0559 µg/mL)

Cc1ccn2c(C(=O)NCc3ccc(Oc4ccc(F)cc4)cc3)c(C)nc2c1
Drug metabolism [2]: Active
Drug metabolism [3]: Active
Drug metabolism [4]: Active
inhibition (INH) (Cytochrome P450 2C9): Active
half-life [19]: 13.2 h
Tmax [20]: 0.5 h
Tmax [12]: 0.5 h
MIC99 [14]: < 0.03 µM
MIC99 [17]: < 0.03 µM
MIC90 [15]: 0.03 µM (≈ 0.0117 µg/mL)
MIC99 [18]: < 0.03 µM
Activity [16]: Active
MIC99 [1]: 0.004 µM (≈ 0.00156 µg/mL)

Cc1ccc2nc(C(F)(F)F)c(C(=O)NCc3ccc(S(C)(=O)=O)cc3)n2c1
MIC99 [1]: 0.9 µM (≈ 0.37 µg/mL)

CO[C@H]1/C=C/O[C@@]2(C)Oc3c(C)c(O)c4c(O)c(c(/C=N/N5CCN(C)CC5)c(O)c4c3C2=O)NC(=O)/C(C)=C\C=C\[C@H](C)[C@H](O)[C@@H](C)[C@@H](O)[C@@H](C)[C@H](OC(C)=O)[C@@H]1C [RIFAMPIN]
MIC99 [1]: 0.003 µM (≈ 0.00247 µg/mL)

Cc1ccn2c(C(=O)NCc3ccc(S(N)(=O)=O)cc3)c(C)nc2c1
MIC99 [1]: > 20 µM

C[C@H]1COC2(CCN(c3nc(=O)c4cc(C(F)(F)F)cc([N+](=O)[O-])c4s3)CC2)O1 [BTZ-043]
MIC99 [1]: 0.003 µM (≈ 0.00129 µg/mL)

COc1cccc(CNC(=O)c2c(C)nc3cc(Cl)ccn23)c1
MIC99 [1]: 1.1 µM (≈ 0.363 µg/mL)

NNC(=O)c1ccncc1 [ISONIAZID]
MIC99 [1]: 0.3 µM (≈ 0.0411 µg/mL)

Cc1ccc2nc(C)c(C(=O)NCc3ccccc3)n2c1
MIC99 [14]: < 0.04 µM
MIC99 [17]: < 0.04 µM
MIC99 [15]: < 0.04 µM
MIC99 [18]: 0.04 µM (≈ 0.0112 µg/mL)
MIC99 [1]: 0.006 µM (≈ 0.00168 µg/mL)
